In general, IC50 refers to the midpoint of a concentration-inhibition curve.

Drawing on patent US20240189309A1, “TYK2 INHIBITORS AND USES THEREOF” (Sudo Biosciences Limited, priority 2021, published 2024), this text covers IC50 for two compounds.

The target in assay [1] is T1, JAK3-JH1 (Homo sapiens, UniProt P52333).
T1 construct: recombinant purified His or GST-tagged catalytic domain for each enzyme; purchased Carna biosciences 08-046
As to the kind of experiment: HTRF-based selectivity assay, JAK3 catalytic domain. Format: biochemical. The conditions noted are these: kinase domain (JH1), ATP 2.12 μM. The procedure: (§1) Example B-2: HTRF-Based Selectivity Assay
(§2) The ability of compounds to inhibit the activity of JAK1, JAK2, JAK3 and TYK2 is measured using a recombinant purified His or GST-tagged catalytic domain for each enzyme (JAK1, JAK2 and TYK2 are generated in-house; JAK3 was purchased from Carna biosciences, Cat #08-046) in an HTRF format biochemical assay. The reactions employs a commercial peptide substrate from Cisbio (Cat #62TK0PEC). The basic assay protocol is as follows: first, 2.5 μL of diluted compounds (4×) in DMSO are dispensed into a 384-well Optiplate. Next, 2.5 μL of enzyme (final concentrations for enzymes are: TYK2—700 ng/mL, JAK1—80.6 ng/mL, JAK2—2.1 ng/mL and JAK3—171.8 ng/mL) is added and incubated at RT for 5-20 min. Finally, 5 μl of mixture of 2×ATP [Final concentration 20 μM for TYK2, 21.43 μM for JAK1, 14.7 μM for JAK2 and 2.12 μM for JAK3]+2× Substrate [Final concentration 217 nM for TYK2, 454.7 nM for JAK1, 200 nM for JAK2 and 257.4 nM for JAK3] is added to 384 well Optiplate. Composition of Kinase assay buffer used in the assay is as follows: HEPES 50 mM, EGTA 1 mM, MgCl2 10 mM, DTT 2 mM, Tween-20 0.01% and water. Then the plates are shaken and then incubated at 26.5° C. for 60 min.

Assay [2] deals with T2, TYK2 Pseudokinase (JH2) (Homo sapiens, UniProt P29597). As to the kind of experiment: HEK-Blue IFNα/β reporter assay (SEAP) for profiling TYK2 pseudokinase (JH2) inhibition. Format: cell-based. The conditions noted are these: HEK-Blue IFNα/β cells, 1 ng/mL human recombinant IFNα, read-out: IFNα (TYK2 inhibitory activity, IC50). The procedure:
(§3) Example B-1: HEK-Blue™ IL-23 and IFNα/β Reporter Assays for Profiling TYK2 Pseudokinase (JH2) Inhibition
(§4) HEK-Blue™ IL-23 and IFNα/β cells with a stably-integrated cytokine receptor and STAT3 or STAT1 express STAT-inducible secreted embryonic alkaline phosphatase (SEAP) reporter gene upon cytokine stimulation. These cells are plated in DMEM (Gibco) containing 10% heat-inactivated FBS (Gibco) and 100 U/mL PenStrep (Gibco) at 37° C. under 5% CO2 conditions for 20-22 hours. The cells are then pretreated with serially diluted test compounds for 60 min prior to stimulation with either 10 ng/mL human recombinant IL-23 (Miltenyl Biotech) or 1 ng/mL human recombinant IFNα (InvivoGen) for 22-24 hours for IL-23 or 16-18 h for IFNα. SEAP induction is measured using the QUANTI Blue™ Solution (InvivoGen) according to the manufacturer's instructions.

Assay [3] concerns the target T3, TYK2-JH1 (Homo sapiens, UniProt P29597).
T3 construct: recombinant purified His or GST-tagged catalytic domain for each enzyme; made in house
T3 sequence (P29597 897-1176 limits assumed): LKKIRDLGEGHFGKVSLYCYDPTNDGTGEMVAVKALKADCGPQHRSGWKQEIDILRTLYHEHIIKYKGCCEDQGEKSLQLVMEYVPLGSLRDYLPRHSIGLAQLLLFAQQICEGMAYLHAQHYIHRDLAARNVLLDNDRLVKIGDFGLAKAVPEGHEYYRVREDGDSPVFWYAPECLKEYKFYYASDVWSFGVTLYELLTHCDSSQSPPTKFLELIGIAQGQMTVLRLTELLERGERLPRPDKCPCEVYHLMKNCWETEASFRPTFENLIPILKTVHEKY
As to the kind of experiment: HTRF-based selectivity assay, TYK2 catalytic domain. Format: biochemical. The conditions noted are these: kinase domain (JH1), ATP 20 μM. On the procedure:
as §1, §2

For assay [4], the system named is HEK-Blue™ IFNγ reporter cells. As to the kind of experiment: HEK-Blue IFNγ reporter assay (SEAP) for determining selectivity. Conditions: 50 ng/mL human recombinant IFNγ, read-out: IFN-γ (SEAP selectivity, IC50). Format: cell-based. On the procedure: (§5) Example B-3: HEK-Blue™ IL-2 and IFNγ Reporter Assays for Determining Selectivity
(§6) HEK-Blue™ IL-2 and IFNγ reporter cells with a stably-integrated cytokine receptor and STAT5 or STAT1 express STAT-inducible secreted embryonic alkaline phosphatase (SEAP) reporter gene upon cytokine stimulation. These cells were plated in DMEM (Gibco) containing 10% heat-inactivated FBS (Gibco) and 100 U/mL PenStrep (Gibco) at 37° C. under 5% CO2 conditions for 20-22 hours. The cells were then pre-treated with serially diluted test compounds for 60 min prior to stimulation with either 4 ng/mL human recombinant IL-2 (Miltenyl Biotech) or 50 ng/mL human recombinant IFNγ (InvivoGen) for 24 hours. SEAP induction was measured using the QUANTI-Blue™ Solution (InvivoGen) according to the manufacturer's instructions.
For orientation: A reporter such as luciferase makes a cellular process visible.

For assay [5], the target named is T2, TYK2 Pseudokinase (JH2). As to the kind of experiment: HEK-Blue IL-23 reporter assay (SEAP) for profiling TYK2 pseudokinase (JH2) inhibition. The conditions noted are these: HEK-Blue IL-23 cells, 10 ng/mL human recombinant IL-23, SEAP reporter; read-out: IL23 (TYK2 inhibitory activity, IC50). The class given is cell-based. Also noted: HEK-Blue™ IL-23 and IFNα/β cells with a stably-integrated cytokine receptor and STAT3 or STAT1; endogenous in cells; host or cells: HEK-Blue IL-23 and HEK-Blue IFNα/β cells. On the procedure:
as §3, §4

Assay [6] addresses T4, JAK1-JH1 (Homo sapiens, UniProt P23458).
T4 construct: recombinant purified His or GST-tagged catalytic domain for each enzyme; made in house
As to the kind of experiment: HTRF-based selectivity assay, JAK1 catalytic domain. The class given is biochemical. The conditions noted are these: kinase domain (JH1), ATP 21.43 μM. On the procedure: as §1, §2
Background: In TR-FRET formats the signal depends on donor and acceptor labels being close together.

For assay [7], the target named is T5, JAK2-JH1 (Homo sapiens, UniProt O60674).
T5 construct: recombinant purified His or GST-tagged catalytic domain for each enzyme; made in house
T5 sequence (O60674 849-1124 limits assumed): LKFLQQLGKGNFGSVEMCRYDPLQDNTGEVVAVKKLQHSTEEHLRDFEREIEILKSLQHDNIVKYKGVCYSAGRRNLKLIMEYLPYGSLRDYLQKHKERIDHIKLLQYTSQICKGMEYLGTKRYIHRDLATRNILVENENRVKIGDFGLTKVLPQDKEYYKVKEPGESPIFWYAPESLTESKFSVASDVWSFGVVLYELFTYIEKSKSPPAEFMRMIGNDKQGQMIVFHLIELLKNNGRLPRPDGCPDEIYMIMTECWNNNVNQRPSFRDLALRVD
As to the kind of experiment: HTRF-based selectivity assay, JAK2 catalytic domain. The class given is biochemical. Conditions: kinase domain (JH1), ATP 14.7 μM. The procedure: as §1, §2

In assay [8] the test system is HEK-Blue™ IL-2 reporter cells. As to the kind of experiment: HEK-Blue IL-2 reporter assay (SEAP) for determining selectivity. The class given is cell-based. Conditions: HEK-Blue IL-2 cells, 4 ng/mL human recombinant IL-2, SEAP reporter. On the procedure:
as §5, §6

Bounds are passed on as bounds.

T2 sequence (P29597 whole entry): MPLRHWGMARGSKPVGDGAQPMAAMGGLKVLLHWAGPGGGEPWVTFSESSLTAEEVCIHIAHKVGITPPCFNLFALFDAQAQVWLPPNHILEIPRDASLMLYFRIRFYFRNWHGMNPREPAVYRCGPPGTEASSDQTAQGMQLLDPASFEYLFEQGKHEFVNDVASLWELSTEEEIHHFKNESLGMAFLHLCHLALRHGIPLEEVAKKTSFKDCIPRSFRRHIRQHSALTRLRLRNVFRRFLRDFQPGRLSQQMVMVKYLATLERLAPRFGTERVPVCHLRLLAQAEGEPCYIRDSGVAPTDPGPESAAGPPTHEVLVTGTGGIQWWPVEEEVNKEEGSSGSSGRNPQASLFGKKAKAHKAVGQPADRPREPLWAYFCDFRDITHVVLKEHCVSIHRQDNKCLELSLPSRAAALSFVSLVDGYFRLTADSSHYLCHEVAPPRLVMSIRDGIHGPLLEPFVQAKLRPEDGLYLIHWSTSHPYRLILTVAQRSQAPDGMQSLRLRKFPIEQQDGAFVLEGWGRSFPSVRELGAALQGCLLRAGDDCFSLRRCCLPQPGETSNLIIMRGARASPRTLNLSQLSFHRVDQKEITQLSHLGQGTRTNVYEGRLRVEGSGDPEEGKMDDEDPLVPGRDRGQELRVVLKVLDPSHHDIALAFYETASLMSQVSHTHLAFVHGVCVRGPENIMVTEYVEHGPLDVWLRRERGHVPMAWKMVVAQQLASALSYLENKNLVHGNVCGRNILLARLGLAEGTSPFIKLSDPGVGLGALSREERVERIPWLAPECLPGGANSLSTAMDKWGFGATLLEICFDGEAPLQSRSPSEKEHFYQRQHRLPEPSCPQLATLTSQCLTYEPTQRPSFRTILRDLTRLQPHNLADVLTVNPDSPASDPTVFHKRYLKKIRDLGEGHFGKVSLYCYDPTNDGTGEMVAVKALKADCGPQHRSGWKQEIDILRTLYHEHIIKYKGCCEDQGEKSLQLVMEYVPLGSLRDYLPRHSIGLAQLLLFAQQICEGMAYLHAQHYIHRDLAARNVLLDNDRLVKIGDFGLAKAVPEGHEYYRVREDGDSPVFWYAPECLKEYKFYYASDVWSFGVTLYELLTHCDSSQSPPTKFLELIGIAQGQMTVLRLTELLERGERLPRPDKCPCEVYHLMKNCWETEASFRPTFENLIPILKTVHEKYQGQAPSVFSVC
T4 sequence (P23458 875-1153 limits assumed): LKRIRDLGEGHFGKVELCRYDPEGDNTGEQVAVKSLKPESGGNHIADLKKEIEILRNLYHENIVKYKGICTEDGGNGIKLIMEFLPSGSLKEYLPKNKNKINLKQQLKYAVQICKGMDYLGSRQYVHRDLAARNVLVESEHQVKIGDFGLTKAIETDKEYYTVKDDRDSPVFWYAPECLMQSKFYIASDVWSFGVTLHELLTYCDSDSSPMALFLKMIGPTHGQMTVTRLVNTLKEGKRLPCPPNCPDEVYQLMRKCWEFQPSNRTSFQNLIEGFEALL
T1 sequence (P52333 822-1111 limits assumed): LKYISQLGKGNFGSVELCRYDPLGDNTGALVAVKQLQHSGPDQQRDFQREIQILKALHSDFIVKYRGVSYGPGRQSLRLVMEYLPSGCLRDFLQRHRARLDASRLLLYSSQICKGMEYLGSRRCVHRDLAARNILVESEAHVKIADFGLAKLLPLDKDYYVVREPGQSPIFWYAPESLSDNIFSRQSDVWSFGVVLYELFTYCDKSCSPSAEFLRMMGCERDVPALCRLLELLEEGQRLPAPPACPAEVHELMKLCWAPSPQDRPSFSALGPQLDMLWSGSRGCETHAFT

With `[2H]C([2H])([2H])NC(=O)c1cnc(NC(=O)C2CC2)cc1Nc1cc(F)cc2c1N(C)Cc1nn(C)c(=O)n1-2` [Compound 16, 6-(cyclopropanecarboxamido)-4-((8-fluoro-2,5-dimethyl-1-oxo-1,2,4,5-tetrahydro-[1,2,4]triazolo[4,3-a]quinoxalin-6-yl)amino)-N-(methyl-d3)nicotinamide], the half-maximal inhibitory concentration (IC50) is > 1 µM in assay [1]; < 0.03 µM in assay [2]; > 1 µM in assay [3]; > 1 µM in assay [4]; < 0.03 µM in assay [5]; > 1 µM in assay [6]. Moreover, the IC50 in assay [7] and in assay [8] was > 1 µM in each case.
Turning to `[2H]C([2H])([2H])NC(=O)c1nnc(NC(=O)C2CC2)cc1Nc1cccc2c1N(C)Cc1nn(C)c(=O)n1-2` [Compound 17, 6-(cyclopropanecarboxamido)-4-((2,5-dimethyl-1-oxo-1,2,4,5-tetrahydro-[1,2,4]triazolo[4,3-a]quinoxalin-6-yl)amino)-N-(methyl-d3)pyridazine-3-carboxamide], the IC50 in assay [1] was > 1 µM; in assay [2], < 0.03 µM; in assay [3], > 1 µM; in assay [4], 0.03 to 0.3 µM; in assay [5], < 0.03 µM; in assay [6] it was > 1 µM. For the same compound, the IC50 in assay [7] and in assay [8] was > 1 µM each time.
